Measurements reported in PubChem BioAssay (NCI).
Where “and” joins values, the source holds several entries; their conditions need not be identical. Equal values may be shown once.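 All cell lines were grown in 96-well plates and treated with compound for 48 hours. The concentration for 50% growth inhibition is given as GI50. TGI denotes the concentration required for complete inhibition of growth.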 Where a SMILES comes first, the peptide text is derived from it. The star is where a group is joined. Boc = CC(C)(C)OC(=O)*; Bn = c1ccc(C*)cc1

Legend:
Assay in all cases: NCI tumour cell line growth inhibition, 48 h
A498 renal = system: A498 renal
ACHN renal = system: ACHN renal
IGROV1 ovarian = system: IGROV1 ovarian
K-562 leukemia = system: K-562 leukemia
M14 melanoma = system: M14 melanoma
MDA-MB-435 = system: MDA-MB-435
MOLT-4 leukemia = system: MOLT-4 leukemia
NCI-H23 lung = system: NCI-H23 lung
OVCAR-5 ovarian = system: OVCAR-5 ovarian
SK-MEL-5 melanoma = system: SK-MEL-5 melanoma
SNB-19 CNS = system: SNB-19 CNS
U251 CNS = system: U251 CNS
UACC-62 melanoma = system: UACC-62 melanoma

Structure (SMILES) | TGI (A498 renal) | TGI (ACHN renal) | TGI (IGROV1 ovarian) | TGI (K-562 leukemia) | TGI (M14 melanoma) | TGI (MDA-MB-435) | TGI (MOLT-4 leukemia) | TGI (NCI-H23 lung) | TGI (OVCAR-5 ovarian) | TGI (SK-MEL-5 melanoma) | TGI (SNB-19 CNS) | TGI (U251 CNS) | TGI (UACC-62 melanoma) | GI50 (A498 renal) | GI50 (ACHN renal) | GI50 (M14 melanoma) | GI50 (MDA-MB-435) | GI50 (OVCAR-5 ovarian) | GI50 (SK-MEL-5 melanoma)
C/C=C\C(CC(=O)OC)CC(=O)N(CCC1CN(S(=O)(=O)C(F)(F)F)c2ccccc21)Cc1ccc(OC)cc1OC (stereo not drawn) | > 100 µM | > 100 µM | > 100 µM | > 100 µM | > 100 µM | > 100 µM | > 100 µM | > 100 µM | > 100 µM | > 100 µM | > 100 µM | > 100 µM |  |  |  |  |  |  | 
CN1CC2=C(NC(=S)NC2c2ccccc2Cl)/C(=C/c2ccccc2Cl)C1 (stereo not drawn) | > 100 µM | > 100 µM | > 100 µM | > 100 µM | > 100 µM | > 100 µM | 75.5 µM | > 100 µM | > 100 µM | 32.3 µM | > 100 µM | > 100 µM | > 100 µM |  |  |  |  |  | 
CC1(C)CCCCCCCCCC2CC2CCC(C)(C)C1=O (stereo not drawn) | > 100 µM | 33.4 µM | > 100 µM | 32.6 µM | 48.6 µM | 55.5 µM | 80.1 µM | > 100 µM | 40 µM | 43.2 µM | 88.3 µM | 33 µM | > 100 µM |  |  |  |  |  | 
O=C(Nc1cccc(C(=O)NCCCO)c1)/C(=C/c1ccccc1)NC(=O)c1ccccc1 | > 100 µM | > 100 µM | > 100 µM | > 100 µM | > 100 µM | > 100 µM | > 100 µM | > 100 µM | > 100 µM | > 100 µM | > 100 µM | > 100 µM | > 100 µM |  |  |  |  |  | 
CNC(=O)C(CC(C)C)NC(=O)C(C)NC(=O)C(Cc1ccc(OCc2ccccc2)cc1)NC(=O)C(COCc1ccccc1)NC(=O)OC(C)(C)C (stereo not drawn) (Boc-S(Bn)Y(Bn)AL-NHMe; configuration not given here) | 94 µM and 30.3 µM | > 100 µM | 53.9 µM and 63.7 µM | > 48 µM and 38.4 µM | > 100 µM and 28.2 µM | > 55.9 µM and 27.9 µM | 22.9 µM and 38.5 µM | > 71.1 µM and 43.3 µM | > 100 µM and 51.6 µM | > 100 µM and 23.9 µM | > 58 µM and 36.9 µM | > 41.3 µM and 31.7 µM | > 31.6 µM | 33.7 µM and 12.5 µM | > 100 µM and 13 µM | 42.1 µM and 15 µM | 20.7 µM and 10.1 µM | > 73.2 µM and 21.2 µM | 47.9 µM and 11.7 µM
COc1cc(CNc2c3ccccc3nc3ccccc23)cc(OC)c1OC | 7.71 µM | 14.4 µM | 25.2 µM | 2 µM | 8.76 µM | 12.9 µM | > 22 µM | 18.5 µM | 14.6 µM | 7.83 µM | 24.3 µM | 19.5 µM | 7.74 µM |  |  |  |  |  | 
O=C1CC2CC(CC3(CO3)C2)C1F (stereo not drawn) | > 100 µM | > 100 µM | > 100 µM | > 100 µM | > 100 µM | > 100 µM | > 100 µM | > 100 µM | > 100 µM | > 100 µM | > 100 µM | > 100 µM | > 100 µM |  |  |  |  |  | 
CCC1CCC2c3c([nH]c4ccc(C)cc34)C3C(=O)N(N(C)C)C(=O)C3C2C1 (stereo not drawn) | > 100 µM | > 100 µM | > 100 µM | > 57 µM | > 100 µM | > 33.4 µM | > 100 µM | > 100 µM | > 100 µM | > 100 µM | > 100 µM | > 100 µM | > 100 µM |  |  |  |  |  | 
O=C(NCCCN(CCCCN(CCCNC(=O)c1cc(S(=O)(=O)O)cc(O)c1O)C(=O)c1cc(S(=O)(=O)O)cc(O)c1O)C(=O)c1cc(S(=O)(=O)O)cc(O)c1O)c1cc(S(=O)(=O)O)cc(O)c1O | > 100 µM | > 100 µM | > 100 µM | > 100 µM |  | > 100 µM |  | > 100 µM |  | > 100 µM | > 100 µM | > 100 µM | > 100 µM |  |  |  |  |  | 
COC(=O)/N=[N+](\[O-])C(c1ccccc1)c1ccccc1 | > 100 µM |  | > 100 µM | > 100 µM | > 100 µM | > 100 µM | > 100 µM | > 100 µM | > 100 µM | > 100 µM | > 100 µM | > 100 µM | > 100 µM |  |  |  |  |  | 
CC(=O)Nc1cc2nc3n(c2cc1C)CCC3OC(C)=O (stereo not drawn) | > 100 µM | > 100 µM | > 100 µM | > 100 µM | > 100 µM | > 100 µM | > 100 µM | > 100 µM | > 100 µM |  | > 100 µM | > 100 µM | > 100 µM |  |  |  |  |  | 
O=c1[nH]nc(Cc2ccccc2)n1/N=C/c1ccc([N+](=O)[O-])cc1 | > 100 µM | > 100 µM | > 100 µM | > 100 µM |  | > 100 µM | > 100 µM | > 100 µM | > 100 µM | > 100 µM |  | > 100 µM | > 100 µM |  |  |  |  |  | 
O=C1/C(=C/c2ccc(O)c(O)c2)CC/C1=C\c1ccc(O)c(O)c1 | 63.2 µM | 26.6 µM | > 58.5 µM | 27.7 µM | 9.56 µM | > 100 µM | > 36.8 µM | 11.3 µM | > 100 µM | > 60.3 µM | 66.4 µM | 27.4 µM | 26 µM |  |  |  |  |  | 
CN1CCN(Cc2nc3c(s2)CCc2sccc2-3)CC1 | 83.4 µM | > 100 µM | > 100 µM | > 100 µM | > 100 µM | > 100 µM | > 100 µM | > 100 µM | > 100 µM | > 100 µM | > 100 µM | > 100 µM | 57 µM |  |  |  |  |  | 
CCOC(=O)C1(N)CC1 | > 100 µM | > 100 µM | > 100 µM | > 100 µM | > 100 µM | > 100 µM | > 100 µM | > 100 µM | > 100 µM | > 100 µM | > 100 µM | > 100 µM |  |  |  |  |  |  | 
CS(=O)(=O)O[C@H]1[C@H](O)c2ccccc2[C@@H]1N=[N+]=[N-] | > 100 µM | > 100 µM | > 100 µM | > 100 µM | > 100 µM | > 100 µM | > 100 µM | > 100 µM | > 100 µM | > 100 µM | > 100 µM | > 100 µM | > 100 µM |  |  |  |  |  | 
O=C(CN=C(CN(c1ccccc1)c1ccccc1)Oc1ccc(Cl)cc1Cl)n1ccnc1 | > 100 µM | > 100 µM | > 100 µM | > 100 µM | > 100 µM | > 100 µM | > 100 µM | > 100 µM | > 100 µM | > 100 µM | > 100 µM | > 100 µM | > 100 µM |  |  |  |  |  | 
COc1cc(C2OC[C@@H]3C(=O)OC[C@H]23)cc(O)c1OC (stereo partly drawn) | > 100 µM | > 100 µM | > 100 µM | > 100 µM | > 100 µM | > 100 µM | > 100 µM | > 100 µM | > 100 µM | > 100 µM | > 100 µM | > 100 µM | > 100 µM |  |  |  |  |  | 
C(#CC1(Nc2ccccc2)CCN(Cc2ccccc2)CC1)C1(Nc2ccccc2)CCN(Cc2ccccc2)CC1 | > 46.4 µM | > 56.2 µM | > 46.4 µM | 16.1 µM | > 100 µM | > 100 µM | 32.7 µM | > 56.2 µM | > 56.2 µM | 18.3 µM | 52.9 µM | 43.6 µM | 21.4 µM |  |  |  |  |  | 
CCOC(=O)C(NC(=O)CC)(Nc1ccc(F)cc1F)C(F)(F)F (stereo not drawn) | > 100 µM | > 100 µM | > 100 µM | > 100 µM | > 100 µM | > 100 µM | > 100 µM | > 100 µM | > 100 µM | > 100 µM | > 100 µM | > 100 µM |  |  |  |  |  |  | 
COC(=O)[C@]12CSC[C@H]1C[C@H](c1cccc3ccccc13)N2 | > 100 µM | > 100 µM | > 100 µM | > 100 µM | > 100 µM | > 100 µM | 61.4 µM | > 100 µM | > 100 µM | > 100 µM | > 100 µM | > 100 µM | > 100 µM |  |  |  |  |  | 
CCCCCCCCCCOCCOCCOCCOCCCCC(O)CCCCCCCC1=C[C@H](C)OC1=O (stereo partly drawn) | 26.5 µM | 36 µM | 30.5 µM | 36.3 µM | 35.7 µM | 28.2 µM | 20.8 µM | 16.6 µM | 30.6 µM | 22.2 µM | 27.2 µM | 23.5 µM | 28.7 µM |  |  |  |  |  | 
Cc1cn(C2CCN(CC3COC(C)(C)O3)O2)c(=O)[nH]c1=O (stereo not drawn) | > 100 µM | > 100 µM | > 100 µM | > 100 µM | > 100 µM | > 100 µM | > 100 µM | > 100 µM | > 100 µM | > 100 µM |  | > 100 µM | > 100 µM |  |  |  |  |  | 
CCCC(=O)OC[n+]1ccc(-c2c(COC(=O)NC(C)C)c(COC(=O)NC(C)C)c3n2CCC3)cc1 | > 100 µM | > 100 µM | > 100 µM | > 100 µM | > 100 µM | > 100 µM | > 100 µM | > 100 µM | > 100 µM | > 100 µM | > 100 µM | > 100 µM | > 100 µM |  |  |  |  |  | 
C[N+]12C=CC=C1C(N1CCCC1)c1scc(-c3ccc(F)cc3)c12 (stereo not drawn) | > 100 µM |  | 36.1 µM | 26.5 µM | > 100 µM | > 100 µM | 78.1 µM |  | > 100 µM | 36.2 µM | > 100 µM | > 100 µM | > 100 µM |  |  |  |  |  | 
CC(=O)Oc1ccc2cc(-c3ccc(OC(C)=O)c(OC(C)=O)c3)c(=O)oc2c1 | > 100 µM | > 100 µM |  | > 100 µM | > 100 µM | > 100 µM | > 100 µM | > 100 µM | > 100 µM |  | > 100 µM | > 100 µM |  |  |  |  |  |  | 
